Molecular target: T1, OtsA (trehalose 6-phosphate synthase; OtsA-Strep) (Corynebacterium glutamicum, UniProt Q8NMF3)
T1 construct: gene Cgl2624; full-length OtsA with C-terminal Strep-tag kept (pASK-IBA3-otsA), expressed in E. coli BL21(DE3), Strep-Tactin purified, 53 kDa
T1 sequence (Q8NMF3 1-485): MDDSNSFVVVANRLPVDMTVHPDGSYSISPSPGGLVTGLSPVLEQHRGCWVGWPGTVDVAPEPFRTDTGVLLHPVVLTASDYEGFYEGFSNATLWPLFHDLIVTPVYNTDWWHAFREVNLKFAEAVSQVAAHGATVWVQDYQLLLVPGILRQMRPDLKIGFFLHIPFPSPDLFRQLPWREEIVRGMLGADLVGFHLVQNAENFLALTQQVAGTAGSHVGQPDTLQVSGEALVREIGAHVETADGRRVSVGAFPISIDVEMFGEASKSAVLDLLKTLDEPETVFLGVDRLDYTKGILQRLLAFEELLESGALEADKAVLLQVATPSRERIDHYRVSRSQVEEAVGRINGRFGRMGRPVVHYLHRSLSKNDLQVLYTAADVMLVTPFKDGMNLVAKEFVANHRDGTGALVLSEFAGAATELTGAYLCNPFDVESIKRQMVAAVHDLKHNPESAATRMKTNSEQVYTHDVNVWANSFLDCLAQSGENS
Test: GC of trehalose after alkaline phosphatase treatment of trehalose-6-phosphate
Type: biochemical
Conditions: co-substrate 3 mM glucose-6-phosphate; 10 mM Tris-maleate, 5 mM MgCl2, 0.05 mM EDTA, pH 7.5, 30 °C; 3 mM or 5 mM sugar nucleotide

Q: For Nc1ncnc2c1ncn2[C@@H]1O[C@H](COP(=O)(O)OP(=O)(O)O[C@H]2O[C@H](CO)[C@@H](O)[C@H](O)[C@H]2O)[C@@H](O)[C@H]1O [ADP-glucose], which specific activity is on record?
A: The specific activity was “C. glutamicum OtsA used UDP- as well as ADP-glucose as precursor for trehalose-phosphate synthesis”.

From publication PMC6004087, “Production of the compatible solute α-D-glucosylglycerol by metabolically engineered Corynebacterium glutamicum” (Microbial Cell Factories, 2018)
